Source: US11512079B2, “Heterocycle substituted pyridine derivative antifungal agents” (Amplyx Pharmaceuticals, Inc., priority 2017, dated 2022)
Converted amounts (≈) assume the structure as drawn.

Key:
Type in all cases: cell-based
[1] = system: Rhizomucor pusillus 46342; experiment: In vitro antifungal assay (Example IX), microdilution broth, MEC; conditions: minimum effective concentration (shortening of hyphae), 35° C., 40-48 h, RPMI1640
Outline: (§1)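 Read-out is the minimum effective concentration: lowest compound level causing shorter hyphae than in DMSO controls, echinocandin-style. Broth microdilution used conidia or spores harvested from agar plates, cleared of mycelium and clumps, at a final 1-2×10^4 spores/mL in RPMI1640.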

[2] = system: Aspergillus fumigatus MYA3626; experiment: as above; conditions: minimum effective concentration (shortening of hyphae), 35° C., 40-48 h, RPMI1640
Outline: as §1

[3] = system: Cryptococcus gattii; experiment: In vitro antifungal assay (Example IX), microdilution broth, MIC; conditions: minimum inhibitory concentration (≥50% inhibition), 35° C., 72 h (Cryptococcus), RPMI1640
Method: Preparation of Fungal Suspension. C. albicans 90028 and C. neoformans H99 strains were streaked from frozen stocks at −80° C. onto Sabouraud Dextrose Agar (SDA) plates. These were allowed to grow for 24 h (C. albicans) and 48 h (C. neoformans) at 35° C. before using them in the assay. 5-6 individual colonies were picked and diluted into sterile water to obtain a fungal suspension. The cell density of the suspension was determined and the culture diluted with RPMI1640 medium to obtain a fungal suspension of 2.5×10^3 cells/mL. The suspension was used in the MIC measurement as described below.
Preparation of Compound Stocks and Intermediate Dilutions: The compounds were weighed and DMSO was added to prepare a 10 mg/mL stock. The solutions were mixed by vortexing and sonication at 37° C. for 5-10 mins. The resulting solutions were sterile filtered using a PTFE filter, and aliquoted (12 μL or as needed) and stored at −20° C. Intermediate compound dilutions were prepared in sterile polypropylene tubes in 100% DMSO. The compound stock solution was first diluted in DMSO to obtain a concentration of […] to 0.19 μg/mL.
MIC/MEC Measurement: 99 μL 1 of the fungal suspension in RPMI1640 prepared as above was added to each well of a 96-well round bottom assay plate. 1 μL of the intermediate compound dilutions (200-0.19 μg/mL) were added to wells of the plate. This led to a 100-fold dilution of the intermediate dilutions resulting in a final compound concentration of 2-0.0019 μg/mL in the plate. 1 μL of DMSO was added to “No drug” control wells. The solutions were mixed by shaking on a plate shaker for 10 mins and plates incubated at 35° C. for 40-48 h (C. albicans, A. fumigatus, R. pusillus) and 72 h (Cryptococcus). […] This was validated by thorough mixing and reading at 600 nm on a microplate reader. The minimum concentration that led to shortening of hyphae as compared to hyphal growth in DMSO control wells was determined as the minimum effective concentration (MEC) for A. fumigatus and R. pusillus (as read for echinocandins). The use of the MIC and MEC endpoints against yeasts and molds, respectively has been described by Pfaller M A, Duncanson F, Messer S A, Moet G J, Jones R N, Castanheira M. Antimicrob Agents Chemother. 2011. 55(11):5155-8. In vitro activity of a novel broad-spectrum antifungal, E1210, tested against Aspergillus spp. determined by CLSI and EUCAST broth microdilution methods. Results are shown in Table 2, and the letters indicate the following ranges in μg/mL: […]

[4] = system: Candida albicans 90028; experiment: as above; conditions: minimum inhibitory concentration (≥50% inhibition), 35° C., 40-48 h, RPMI1640
Outline: (§2)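 Yeast inocula (2.5×10^3 cells/mL, RPMI1640) were exposed to twofold compound series reaching 2-0.0019 μg/mL final, per CLSI yeast methodology. Incubation at 35° C. ran 40-48 h for Candida albicans 90028 and 72 h for Cryptococcus neoformans H99. MIC endpoints were confirmed by absorbance at 600 nm.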

[5] = system: Cryptococcus neoformans H99; experiment: as above; conditions: minimum inhibitory concentration (≥50% inhibition), 35° C., 72 h, RPMI1640
Outline: as §2

| MIC [3] [µg/mL] | MIC [4] [µg/mL] | MIC [5] [µg/mL] | SMILES | minimal effective concentration [1] [µg/mL] | minimal effective concentration [2] [µg/mL] |
| --- | --- | --- | --- | --- | --- |
| 0.1 to 1 (≈ 0.286 to 2.86 µM) | 0.1 to 1 (≈ 0.286 to 2.86 µM) | 0.1 to 1 (≈ 0.286 to 2.86 µM) | Nc1ncccc1-c1cc(Cc2ccc(Cn3cc(F)cn3)cc2)no1 [compound 4, 3-(3-(4-((4-fluoro-1H-pyrazol-1-yl)methyl)benzyl)isoxazol-5-yl)pyridin-2-amine] | 0.1 to 1 | 0.01 to 0.1 |
| 0.1 to 1 (≈ 0.25 to 2.5 µM) | 0.1 to 1 (≈ 0.25 to 2.5 µM) | 0.1 to 1 (≈ 0.25 to 2.5 µM) | Nc1ncccc1-c1cc(Cc2ccc(Cn3cc(C(F)(F)F)cn3)cc2)no1 [compound 5, 3-(3-(4-((4-(trifluoromethyl)-1H-pyrazol-1-yl)methyl)benzyl)isoxazol-5-yl)pyridin-2-amine] | 0.1 to 1 | 0.1 to 1 |
| ≤ 0.01 | 0.1 to 1 (≈ 0.293 to 2.93 µM) | 0.01 to 0.1 (≈ 0.0293 to 0.293 µM) | Nc1ncccc1-c1cc(Cc2ccc(Cc3ccccc3)cc2)no1 [compound 8, 3-(3-(4-benzylbenzyl)isoxazol-5-yl)pyridin-2-amine] | 0.1 to 1 | 0.1 to 1 |
| 0.01 to 0.1 (≈ 0.0292 to 0.292 µM) | 0.01 to 0.1 (≈ 0.0292 to 0.292 µM) | 0.1 to 1 (≈ 0.292 to 2.92 µM) | Nc1ncccc1-c1cc(Cc2ccc(Cc3cccnc3)cc2)no1 [compound 9, 3-(3-(4-(pyridin-3-ylmethyl)benzyl)isoxazol-5-yl)pyridin-2-amine] | 0.1 to 1 | 0.1 to 1 |
| 0.1 to 1 (≈ 0.302 to 3.02 µM) | 0.1 to 1 (≈ 0.302 to 3.02 µM) | 0.1 to 1 (≈ 0.302 to 3.02 µM) | Nc1ncccc1-c1cc(Cc2ccc(Cc3cn[nH]c3)cc2)no1 [compound 10, 3-(3-(4-((1H-pyrazol-4-yl)methyl)benzyl)isoxazol-5-yl)pyridin-2-amine] | > 1 | 0.1 to 1 |
| 0.1 to 1 (≈ 0.29 to 2.9 µM) | 0.1 to 1 (≈ 0.29 to 2.9 µM) | 0.1 to 1 (≈ 0.29 to 2.9 µM) | Cn1cc(Cc2ccc(Cc3cc(-c4cccnc4N)on3)cc2)cn1 [compound 11, 3-(3-(4-((1-methyl-1H-pyrazol-4-yl)methyl)benzyl)isoxazol-5-yl)pyridin-2-amine] | > 1 | 0.01 to 0.1 |
| 0.1 to 1 (≈ 0.278 to 2.78 µM) | 0.1 to 1 (≈ 0.278 to 2.78 µM) | 0.1 to 1 (≈ 0.278 to 2.78 µM) | CCn1cc(Cc2ccc(Cc3cc(-c4cccnc4N)on3)cc2)cn1 [compound 12, 3-(3-(4-((1-ethyl-1H-pyrazol-4-yl)methyl)benzyl)isoxazol-5-yl)pyridin-2-amine] | > 1 | 0.01 to 0.1 |
| 0.1 to 1 (≈ 0.301 to 3.01 µM) | 0.1 to 1 (≈ 0.301 to 3.01 µM) | 0.1 to 1 (≈ 0.301 to 3.01 µM) | Nc1ncccc1-c1cc(Cc2ccc(Cc3cnoc3)cc2)no1 [compound 14, 3-(3-(4-(isoxazol-4-ylmethyl)benzyl)isoxazol-5-yl)pyridin-2-amine] | 0.1 to 1 | 0.01 to 0.1 |
| 0.01 to 0.1 (≈ 0.0277 to 0.277 µM) | 0.01 to 0.1 (≈ 0.0277 to 0.277 µM) | 0.01 to 0.1 (≈ 0.0277 to 0.277 µM) | Nc1ncccc1-c1cc(Cc2ccc(Cc3cccc(F)n3)cc2)no1 [compound 15, 3-(3-(4-((6-fluoropyridin-2-yl)methyl)benzyl)isoxazol-5-yl)pyridin-2-amine] | 0.1 to 1 | ≤ 0.01 |
| 0.01 to 0.1 (≈ 0.0302 to 0.302 µM) | 0.01 to 0.1 (≈ 0.0302 to 0.302 µM) | 0.01 to 0.1 (≈ 0.0302 to 0.302 µM) | Nc1ncccc1-c1cc(Cc2ccc(CC3=CCCC3)cc2)no1 [compound 17, 3-(3-(4-(cyclopent-1-en-1-ylmethyl)benzyl)isoxazol-5-yl)pyridin-2-amine] | 0.1 to 1 | 0.01 to 0.1 |
| 0.1 to 1 (≈ 0.281 to 2.81 µM) | 0.01 to 0.1 (≈ 0.0281 to 0.281 µM) | 0.1 to 1 (≈ 0.281 to 2.81 µM) | Nc1ncccc1-c1cc(Cc2ccc(CCc3ccccc3)cc2)no1 [compound 18, 3-(3-(4-phenethylbenzyl)isoxazol-5-yl)pyridin-2-amine] | 0.1 to 1 | 0.01 to 0.1 |
| 0.01 to 0.1 (≈ 0.0277 to 0.277 µM) | 0.01 to 0.1 (≈ 0.0277 to 0.277 µM) | 0.01 to 0.1 (≈ 0.0277 to 0.277 µM) | Nc1ncccc1-c1cc(Cc2ccc(Cc3ccnc(F)c3)cc2)no1 [compound 19, 3-(3-(4-((2-fluoropyridin-4-yl)methyl)benzyl)isoxazol-5-yl)pyridin-2-amine] | 0.1 to 1 | 0.01 to 0.1 |
| 0.01 to 0.1 (≈ 0.0264 to 0.264 µM) | 0.1 to 1 (≈ 0.264 to 2.64 µM) | 0.01 to 0.1 (≈ 0.0264 to 0.264 µM) | Nc1ncccc1-c1cc(Cc2ccc(Cc3ccnc(F)c3F)cc2)no1 [compound 20, 3-(3-(4-((2,3-difluoropyridin-4-yl)methyl)benzyl)isoxazol-5-yl)pyridin-2-amine] | 0.1 to 1 | 0.01 to 0.1 |
| 0.01 to 0.1 (≈ 0.028 to 0.28 µM) | 0.1 to 1 (≈ 0.28 to 2.8 µM) | 0.1 to 1 (≈ 0.28 to 2.8 µM) | Nc1ncccc1-c1cc(Cc2ccc(C(O)c3ccccc3)cc2)no1 (centres unmarked) [compound 22, (4-((5-(2-aminopyridin-3-yl)isoxazol-3-yl)methyl)phenyl) (phenyl)methanol] | > 1 | 0.1 to 1 |
| 0.01 to 0.1 (≈ 0.0275 to 0.275 µM) | 0.1 to 1 (≈ 0.275 to 2.75 µM) | 0.1 to 1 (≈ 0.275 to 2.75 µM) | Nc1ncccc1-c1cc(Cc2ccc(COC3CCCCC3)cc2)no1 [compound 23, 3-(3-(4-((cyclohexyloxy)methyl)benzyl)isoxazol-5-yl)pyridin-2-amine] | 0.1 to 1 | 0.1 to 1 |
| 0.1 to 1 (≈ 0.276 to 2.76 µM) | 0.1 to 1 (≈ 0.276 to 2.76 µM) | 0.1 to 1 (≈ 0.276 to 2.76 µM) | Cc1cc(COc2ccc(Cc3cc(-c4cccnc4N)on3)cc2)no1 [compound 26, 3-(3-(4-((5-methylisoxazol-3-yl)methoxy)benzyl)isoxazol-5-yl)pyridin-2-amine] | > 1 | 0.01 to 0.1 |
| 0.1 to 1 (≈ 0.245 to 2.45 µM) | 0.1 to 1 (≈ 0.245 to 2.45 µM) | 0.1 to 1 (≈ 0.245 to 2.45 µM) | Nc1ncccc1-c1cc(Cc2ccc(OCc3ccc4ccccc4n3)cc2)no1 [compound 27, 3-(3-(4-(quinolin-2-ylmethoxy)benzyl)isoxazol-5-yl)pyridin-2-amine] | > 1 | > 1 |
| 0.1 to 1 (≈ 0.278 to 2.78 µM) | 0.1 to 1 (≈ 0.278 to 2.78 µM) | 0.1 to 1 (≈ 0.278 to 2.78 µM) | Nc1ncccc1-c1cc(Cc2ccc(OCc3ncccn3)cc2)no1 [compound 28, 3-(3-(4-(pyrimidin-2-ylmethoxy)benzyl)isoxazol-5-yl)pyridin-2-amine] | > 1 | 0.1 to 1 |
| > 1 | 0.1 to 1 (≈ 0.244 to 2.44 µM) | > 1 | Nc1ncccc1-c1cc(Cc2ccc(OCc3cnc4ccccc4n3)cc2)no1 [compound 30, 3-(3-(4-(quinoxalin-2-ylmethoxy)benzyl)isoxazol-5-yl)pyridin-2-amine] | 0.1 to 1 | > 1 |
| 0.1 to 1 (≈ 0.266 to 2.66 µM) | 0.01 to 0.1 (≈ 0.0266 to 0.266 µM) | 0.1 to 1 (≈ 0.266 to 2.66 µM) | Nc1ncccc1-c1cc(Cc2ccc(CNc3cccc(F)n3)cc2)no1 [compound 31, N-(4-((5-(2-aminopyridin-3-yl)isoxazol-3-yl)methyl)benzyl)-6-fluoropyridin-2-amine] | 0.1 to 1 | 0.01 to 0.1 |
| 0.1 to 1 (≈ 0.279 to 2.79 µM) | 0.01 to 0.1 (≈ 0.0279 to 0.279 µM) | 0.1 to 1 (≈ 0.279 to 2.79 µM) | Nc1ncccc1-c1cc(Cc2ccc(CNc3ncccn3)cc2)no1 [compound 32, N-(4-((5-(2-aminopyridin-3-yl)isoxazol-3-yl)methyl)benzyl)pyrimidin-2-amine] | 0.1 to 1 | 0.01 to 0.1 |
| 0.1 to 1 (≈ 0.251 to 2.51 µM) | 0.01 to 0.1 (≈ 0.0251 to 0.251 µM) | > 1 | Nc1ncccc1-c1cc(Cc2ccc(CNc3nc(Cl)cs3)cc2)no1 [compound 34, N-(4-((5-(2-aminopyridin-3-yl)isoxazol-3-yl)methyl)benzyl)-4-chlorothiazol-2-amine] | 0.1 to 1 | 0.1 to 1 |
